These results are taken from PubChem BioAssay (NCI).

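All cell lines were grown in 96-well plates and treated with compound for 48 hours. TGI: concentration producing complete growth inhibition.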 Some results are limits rather than exact numbers.

What all share (assay): NCI tumour cell line growth inhibition, 48 h
The subject of assay [1] is U251 CNS.
In assay [2] the test system is MDA-MB-435.
Assay [3] deals with HT29 colon.
Assay [4] relates to ACHN renal.
Assay [5] concerns HL-60(TB) leukemia.
Assay [6] deals with OVCAR-5 ovarian.
The test system of assay [7] is A549 NSCLC.
Assay [8] deals with NCI-H460 lung.
For assay [9], the system named is PC-3 prostate.
The subject of assay [10] is SK-MEL-5 melanoma.
Assay [11] concerns SF-268 CNS.
Assay [12] has as its system NCI-H23 lung.

With `O=c1cc(NNc2cccc3ccccc23)[nH]c(=O)[nH]1`, the TGI in [1] amounted to 28.3 µM; in assay [2], 30.7 µM; in [3], 31.9 µM; in [4], 30.3 µM; in assay [5], 7.99 µM; in [6], 31.1 µM. The TGI in assay [7] was determined as 33.4 µM; in assay [8], 43.5 µM; in [9], 27 µM; in [10], 29.7 µM; in assay [11], 31 µM; in assay [12] it was 28.9 µM.

Take `NC(CCC(=O)c1ccccn1)C(=O)O` (configuration not stated): the TGI in assay [1], in [2], in [3], in assay [4], in assay [5] and in assay [6] was greater than 100 µM throughout. For the same compound, the TGI in assay [7], in assay [8], in assay [9], in assay [10], in assay [11] and in assay [12] was greater than 100 µM throughout.

For `O/N=C\c1c2c(cc3c1CCC3)CCC2`, the TGI in [1], in [2], in [3], in assay [4], in assay [5] and in assay [6] was greater than 100 µM each time. The TGI in assay [7], in assay [8], in assay [9], in assay [10], in assay [11] and in assay [12] was greater than 100 µM in each case.

Take `CC(=O)O[C@H]1[C@@H](N2CCOCC2)C[C@H]2[C@@H]3CC=C4C[C@@H](N5CCCC5)CC[C@]4(C)[C@H]3CC[C@@]21C`: the TGI in assay [1], in assay [2], in assay [3], in assay [4], in assay [5] and in assay [6] was greater than 100 µM each time. Also, the TGI in assay [7], in assay [8], in [9], in assay [10], in assay [11] and in assay [12] was greater than 100 µM throughout.

In the case of `c1ccc(C(Oc2noc3ccccc23)c2ccccc2)cc1`, the TGI in assay [1] is greater than 100 µM; in [2], 75.4 µM; in assay [3], greater than 100 µM; in assay [4], greater than 100 µM; in assay [5], 61.3 µM; in assay [6], greater than 100 µM. Further, the TGI was greater than 100 µM in [7]; greater than 100 µM in assay [8]; greater than 100 µM in assay [9]; 39.6 µM in [10]; greater than 100 µM in assay [11]; greater than 100 µM in [12].

For `Cc1ccc(C2=CC(=O)/C(=C\C(=O)c3ccc(Br)cc3)O2)c(C)c1`, the TGI was 43.9 µM in assay [1]; 38.7 µM in [2]; 17.6 µM in assay [3]; 12.3 µM in assay [4]; greater than 100 µM in [5]; 56.7 µM in [6]. The TGI came out at 48.4 µM in assay [7]; 69.2 µM in assay [8]; 11.6 µM in assay [9]; 41.5 µM in [10]; 31.5 µM in [11]; 56.9 µM in assay [12].

For `NC(Cc1ccccc1)C(=O)OCN1C(=O)C2C3C=CC(C2C1=O)C1C(=O)N(COC(=O)C(N)Cc2ccccc2)C(=O)C31` (configuration not stated), the TGI in [1] was greater than 100 µM; in [2], greater than 100 µM; in assay [3], 39.7 µM; in assay [4], greater than 100 µM; in assay [5], 37.8 µM; in assay [6] it was greater than 100 µM. Moreover, the TGI in [7], in assay [8], in [9], in [10], in assay [11] and in assay [12] was greater than 100 µM each time.

`Cc1nn2c(=O)c([N+](=O)[O-])c(/C=C/c3ccc(F)cc3)nc2s1`: the TGI in assay [1] worked out at 14.6 µM; in [2], 10.5 µM; in [3], 16.5 µM; in assay [4] it was 20.6 µM; in assay [5], 18.1 µM; in assay [6], 18 µM. Besides, the TGI in assay [7] was determined as 24.3 µM; in assay [8] it was 22.9 µM; in assay [9], 22 µM; in assay [10], 15.8 µM; in [11] it was 26.2 µM; in assay [12], 23.5 µM.

Consider `O=c1c(-c2nc3ccccc3c3ccccc3c2=O)nc2ccccc2c2ccccc12`, for which the TGI in assay [1] is 60.3 µM; in assay [2] it was 89 µM; in [3] it was greater than 100 µM; in assay [4], greater than 100 µM; in assay [5] it was 58.5 µM; in assay [6], greater than 100 µM. The TGI in assay [7] was greater than 100 µM; in assay [8] it was greater than 100 µM; in assay [9] it was 89.6 µM; in assay [10] it was 86.2 µM; in assay [11], greater than 100 µM; in [12], greater than 100 µM.

As for `NCCCN(CCCCN(CCCN)CCCc1ccccc1)CCCc1ccccc1`, the TGI in assay [1] came out at 4.19 µM; in assay [2], 3.27 µM; in assay [3], 4.32 µM; in assay [4] it was 9.24 µM; in [5], 7.44 µM; in [6], 24.9 µM. Moreover, the TGI in assay [7] turned out to be 9.49 µM; in assay [8] it was 2.72 µM; in assay [9], 12.3 µM; in assay [10] it was 3.36 µM; in [11] it was 8.32 µM; in [12], 17.4 µM.

As for `OCCc1ccsc1-c1sc(-c2cc(CCO)c(-c3sc(-c4cc(CCO)c(-c5sccc5CCO)s4)cc3CCO)s2)cc1CCO`, the TGI in assay [1] is 2.6 µM; in assay [2] it was 3.39 µM; in [3] it was 3.99 µM; in assay [4], 3 µM; in [5], 3.61 µM; in [6] it was 2.85 µM. The TGI in [7] amounted to 2.2 µM; in assay [8], 2.95 µM; in assay [9], 2.67 µM; in assay [10], 3.01 µM; in assay [11] it was 2.14 µM; in [12], 2.87 µM.
